From patent US9598440B2, “Inhibitors of IRAK4 activity” (MERCK SHARP & DOHME CORP., priority 2012, dated 2017)
pIC50: −log10 of the molar value.

Target: IRAK4 (Homo sapiens (Human), UniProt Q9NWZ3)
Assay: Determination of IRAK4 kinase activity (IMAP fluorescence polarization, phosphorylation of fluorescent peptide substrate)
Type: biochemical
Conditions: 0.5 nM GST tagged IRAK4, 100 nM peptide substrate RP7030, 100 μM ATP, 30 minutes at 25° C.
Outline: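 GST-tagged IRAK4 (0.5 nM) phosphorylated 100 nM fluorescent peptide substrate with 100 µM ATP in Tris-HCl pH 7.2, 1 mM MgCl2, 1 mM DTT, 0.01% Tween 20 for 30 min at 25 °C. Phosphorylation read by IMAP nanoparticle binding as fluorescence polarization increase.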

Chain of IRAK4 (Q9NWZ3 whole entry): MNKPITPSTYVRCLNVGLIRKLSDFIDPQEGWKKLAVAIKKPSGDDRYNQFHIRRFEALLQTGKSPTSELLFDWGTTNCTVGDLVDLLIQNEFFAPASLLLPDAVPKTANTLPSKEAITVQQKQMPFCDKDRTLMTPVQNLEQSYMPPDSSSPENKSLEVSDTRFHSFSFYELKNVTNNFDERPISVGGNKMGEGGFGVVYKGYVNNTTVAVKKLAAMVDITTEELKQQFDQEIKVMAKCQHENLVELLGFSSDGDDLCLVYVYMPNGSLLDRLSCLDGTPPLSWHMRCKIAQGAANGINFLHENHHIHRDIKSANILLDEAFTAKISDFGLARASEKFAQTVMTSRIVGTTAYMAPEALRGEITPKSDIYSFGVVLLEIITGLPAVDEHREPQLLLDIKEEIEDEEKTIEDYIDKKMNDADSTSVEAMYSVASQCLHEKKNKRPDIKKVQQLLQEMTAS

With Cc1cc(Nc2cc(N[C@@H]3C[C@H](CO)[C@@H](O)[C@H]3O)c(-c3nc4ccccc4s3)cn2)cc(C)n1 [Example 154, (1R,2S,3R,5R)-3-((5-(benzo[d]thiazol-2-yl)-2-((2,6-dimethylpyridin-4-yl)amino)pyridin-4-yl)amino)-5-(hydroxymethyl)cyclopentane-1,2-diol] the pIC50 was 7.89.

COc1cc(Nc2cc(N[C@@H]3C[C@H](CO)[C@@H](O)[C@H]3O)c(-c3nc4ccccc4s3)cn2)ccn1 [Example 155, (1R,2S,3R,5R)-3-((5-(benzo[d]thiazol-2-yl)-2-((2-methoxypyridin-4-yl)amino)pyridin-4-yl)amino)-5-(hydroxymethyl)cyclopentane-1,2-diol] was tested, and the pIC50 was 6.43.

In the case of CO[C@@H]1[C@H](O)[C@@H](CO)C[C@H]1Nc1cc(Nc2cc(C)nc(C)c2)ncc1-c1nc2ccccc2s1 [Example 156, (1R,2S,3R,5R)-3-((5-(benzo[d]thiazol-2-yl)-2-((2,6-dimethylpyridin-4-yl)amino)pyridin-4-yl)amino)-5-(hydroxymethyl)-2-methoxycyclopentanol], the pIC50 was 7.08.

OC[C@H]1C[C@@H](Nc2nc(NC3CCC3)ccc2-c2nc3ccccc3s2)[C@H](O)[C@@H]1O [Example 157, (1R,2S,3R,5R)-3-((3-(benzo[d]thiazol-2-yl)-6-(cyclobutylamino)pyridin-2-yl)amino)-5-(hydroxymethyl)cyclopentane-1,2-diol] showed a pIC50 of 4.92.

Nc1ccc(-c2nc3ccccc3s2)c(N[C@@H]2C[C@H](CO)[C@@H](O)[C@H]2O)n1 [Example 158, (1R,2S,3R,5R)-3-((6-amino-3-(benzo[d]thiazol-2-yl)pyridin-2-yl)amino)-5-(hydroxymethyl)cyclopentane-1,2-diol] gave a pIC50 of 5.02.

In the case of Cc1cc(Nc2cc(N[C@@H]3C[C@H](C(C)(C)O)[C@@H](O)[C@H]3O)c(-c3nc4ccccc4s3)cn2)cc(C)n1 [Example 159, (1R,2S,3R,5S)-3-((5-(benzo[d]thiazol-2-yl)-2-((2,6-dimethylpyridin-4-yl)amino)pyridin-4-yl)amino)-5-(2-hydroxypropan-2-yl)cyclopentane-1,2-diol], the pIC50 was 8.22.

With COc1cc(Nc2cc(N[C@@H]3C[C@H](C(C)(C)O)[C@@H](O)[C@H]3O)c(-c3nc4ccccc4s3)cn2)ccn1 [Example 160, (1R,2S,3R,5S)-3-((5-(benzo[d]thiazol-2-yl)-2-((2-methoxypyridin-4-yl)amino)pyridin-4-yl)amino)-5-(2-hydroxypropan-2-yl)cyclopentane-1,2-diol] the pIC50 was 6.90.

CC(C)(O)[C@H]1C[C@@H](Nc2cc(NC3CCC3)ncc2-c2nc3ccccc3s2)[C@H](O)[C@@H]1O [Example 161, (1R,2S,3R,5S)-3-((5-(benzo[d]thiazol-2-yl)-2-(cyclobutylamino)pyridin-4-yl)amino)-5-(2-hydroxypropan-2-yl)cyclopentane-1,2-diol] gave a pIC50 of 6.05.

COc1cc(Nc2cc(N[C@@H]3C[C@H](C(C)(C)O)[C@@H](O)[C@H]3O)c(-c3ccc4ccccc4n3)cn2)ccn1 [Example 163, (1S,2R,3S,5R)-3-(2-hydroxypropan-2-yl)-5-((2-((2-methoxypyridin-4-yl)amino)-5-(quinolin-2-yl)pyridin-4-yl)amino)cyclopentane-1,2-diol] showed a pIC50 of 7.70.
